Experimental data from patent publication US6468537B1, “Localization of major peptide autoepitopes for nucleosome specific T cells of systemic lupus erythematosus” (The Board of Trustees of Northwestern University, priority 1999, dated 2002).

Experiments:
[1] = test system: anti-DNA autoantibodies of lupus; settings: cited from earlier work
[2] = test system: splenic T cells of pre-nephritic SNF1 mice; settings: cited from earlier work
[3] = test system: CD4+ T cells; assay: Helper assay: CD4+ T cells from peptide-injected mice co-cultured with B cells from unmanipulated SNF1 mice; type: cell-based, mouse; settings: for reduction of anti-ssDNA antibody production relative to control group / reduction of anti-dsDNA antibody production compared with control group: T cells from treated mice + B cells from unmanipulated mice; for reduction of anti-dsDNA antibody production compared with control group: 7 days; for increase in help for anti-dsDNA antibody production following addition of rIL-2: rIL-2 added at beginning of 7-day culture
Text: (§1) Levels of IgG class autoantibodies specific for single-stranded DNA (ssDNA), double-stranded DNA (dsDNA), histones, and nucleosomes (i.e. histone-DNA complexes), in culture supernatants or serum, were estimated using an enzyme-linked immunosorbent assay (ELISA). Anti-DNA mAbs 564 and 205 were used to generate standard curves as previously described (Mohan et al., 1993, J. Exp. Med. 177:1367; Kaliyaperumal et al., 1996, J. Exp. Med. 183:2459; Mohan et al., 1995, J. Immunol. 154:1470; Adams et al., 1991, Proc. Natl. Acad. Sci. USA 88:11271). Sera were diluted 1:400 and heat-inactivated before use according to standard procedures. Sera from normal SWR mice were used as the negative control. Total polyclonal IgG levels were also measured by ELISA as previously described (Mohan et al., 1993, J. Exp. Med. 177:1367; Mohan et al., 1995, J. Immunol. 154:1470; Adams et al., 1991, Proc. Natl. Acad. Sci. USA 88:11271).
(§2) T-cells from peptide-treated mice used in the short-term experiments were co-cultured with splenic B cells from unmanipulated mice. Conversely, T cells from unmanipulated SNF1 mice (i.e. control mice) were co-cultured with splenic B cells from tolerized (i.e. peptide-injected) mice. Each of the cell types was seeded in 24-well plates at an initial concentration of 2.5×10^6 cells per well. Cultures were maintained for 7 days, as previously described (Datta et al., 1987, J. Exp. Med. 165:1252; Sainis and Datta, 1988, J. Immunol. 140:2215). B cells from unmanipulated or tolerized animals were cultured alone to measure baseline autoantibody production. Culture supernatants were collected, freeze-thawed, and assayed by ELISA for antibodies against ssDNA, dsDNA, histones and nucleosomes. For studies involving stimulation of B cells by soluble CD40 ligand, CD40L-CD8 fusion protein (Wortis et al., 1995, Proc. Natl. Acad. Sci. USA 92:3348) was added to either the co-culture wells or the wells with B cells alone and maintained in the medium for the entire 7-day culture period.

[4] = test system: HLA-DR; settings: cited from earlier work
[5] = test system: B cells; assay: Helper assay: B cells from peptide-injected mice co-cultured with CD4+ T cells from unmanipulated SNF1 mice; type: cell-based, mouse
Text: as §1, §2

[6] = test system: SNF1 mice; assay: Brief therapy with nucleosomal histone peptides (long-term experiments): incidence of severe nephritis; type: in vivo, mouse
Method: (§3) Long-term experiments used 12 week-old, autoimmune, but pre-nephritic SNF1 female mice. Nine mice per peptide test group were injected intravenously with either a saline (solution) or a peptide solution comprising saline and 300 micrograms of one of H2B10-33, H416-39, and H471-94. Each mouse received three subsequent injections of either the saline solution or one of the peptide solutions at two-week intervals. The mice were monitored weekly for proteinuria using an Albustix kit (VWR Scientific, Chicago, Ill.), and sacrificed upon the development of persistent proteinuria. Persistent protenuria was identified as an amount of protein in urine that is equivalent to or greater than 300 milligrams per deciliter, and is a primary indication of severe kidney disease and damage associated with nephritis. Sera were collected from each mouse and the IgG anti-nuclear autoantibodies determined. Blood urea nitrogen (BUN) was measured by Azostix (Miles, Ekhart, Ind.). Immune complex deposition and glomerulonephritis in the kidney were detected by staining with Hematoxylin and Eosin and anti-mouse Ig. These procedures were carried out as previously described (Mohan et al., 1993, J. Exp. Med. 177:1367; Mohan et al., 1995, J. Immunol. 154:1470; Eastcott et al., 1983, J. Immunol. 131:2232; Adams et al., 1991, Proc. Natl. Acad. Sci. USA 88:11271; Kalled et al., 1998, J. Immunol. 160:2158; Gaynor et al., 1997, Proc. Natl. Acad. Sci. USA 94:1955).

[7] = test system: SNF1 mice; assay: IgG anti-nuclear autoantibody and total IgG levels in sera of peptide-injected mice (ELISA); type: in vivo, mouse; settings: sera 1:400
Method: as §3, §1

[8] = test system: SNF1 mice; assay: Chronic therapy of established glomerulonephritis with nucleosomal peptides; type: in vivo, mouse; settings: for survival: by 26 months age; for mice alive: two months after start of treatment (all controls dead), 300 micrograms i.p. monthly, 18-month old mice
Method: Six mice per group were injected intraperitoneally once each month with either a saline solution or a peptide solution comprising saline and 300 micrograms of one of the identified peptides. The endpoint of these experiments was the development of moribund state due to renal failure.

[9] = test system: SNF1 mice; assay: Short-term tolerance experiments: grading of lupus nephritis at sacrifice; type: in vivo, mouse; settings: short-term batch, at sacrifice two weeks after last injection
Method: Short-term experiments were conducted to test the early immunological consequences of tolerance therapy. Twelve week old SNF1 mice were injected once a week for four weeks with either a saline solution or a peptide solution comprising saline and 300 micrograms of one of the above described peptides. Mice were sacrificed at two weeks after the last injection. Presence of autoimmune T and B cells was analyzed and renal lesions were graded.

[10] = test system: B cells; assay: Stimulation of purified B cells from peptide-injected mice (anti-Ig (Fab')2, rIL-4, CD40L, LPS); type: cell-based, mouse
Text: as §1, §2

[11] = rIL-2 added, not significant relative to control
[12] = at 28 weeks of age, 300 micrograms i.v., four injections at two-week intervals from 12 weeks
[13] = at 36-38 weeks of age, control 88.8%
[14] = at 36 weeks of age, control 26±3.2
[15] = at the start of treatment (12 weeks), control 5.5±0.3

H385-102: epitope in nucleosomal core histone H3, amino acid positions 85-102 (QSSAVMALQEACEAYLVG; UniProt P68431 86-103, looked up, fragment)
binding by anti-DNA autoantibodies [1]: also bound by spontaneously arising anti-DNA autoantibodies of lupus | response of splenic T cells [2]: spontaneously responded

H416-39: nucleosomal histone peptide of histone 4 protein (H4), amino acid positions 16-39
reduction of anti-ssDNA antibody production relative to control group [3]: approximately 55% | reduction of anti-dsDNA antibody production compared with control group [3]: approximately 50% | increase in help for anti-dsDNA antibody production following addition of rIL-2 [3]: 35% | increase in anti-nucleosome antibodies following addition of rIL-2 [3, 11]: 20% | increase in anti-ssDNA antibodies following addition of rIL-2 [3, 11]: 30% | binding to HLA-DR [4]: have actually been shown to bind HLA-DR | ability of B cells to produce IgG autoantibodies in presence of T helper cells [5]: diminished levels of all autoantibodies | production of anti-nucleosome antibodies relative to control group [5]: reduced by three fold | reduction of anti-histone antibody production relative to control group [5]: approximately 4 fold | level of anti-dsDNA antibodies produced by B cells ([5]; control 160±18.5): 45±10.1 units per deciliter | production of anti-ssDNA antibodies by B cells ([5]; control 170±10.9 units per deciliter): 60±7.9 units | incidence of severe nephritis [6, 12]: did not develop disease | incidence of severe nephritis [6, 13]: 11.1% | incidence of severe nephritis ([6]; at 54 weeks of age): 55.5% | serum anti-dsDNA antibody level [7, 14]: 13.0±4.0 units | serum anti-dsDNA antibody level [7, 15]: 9.0±2.1 units | survival [8]: all of the H416-39 group mice remained alive | animals exhibiting a reduction in proteinuria levels ([8]; during the course of the experiment): 66.6% | proteinuria level after reduction ([8]; reduced from 300-1000 milligrams per deciliter): less than 100 milligrams per deciliter | mice alive [8]: none of the mice in H416-39 group had died | Percent Incidence, Grading of Lupus Nephritis 0 [9]: 33.3 | Percent Incidence, Grading of Lupus Nephritis 1+ [9]: 66.6 | antibody production by B cells stimulated with anti-Ig (Fab')2 in presence or absence of rIL-4 [10]: did not respond by increasing antibody production | antibody production by B cells with addition of CD40L and rIL-4 [10]: did not produce significant amounts of antibodies

H471-94: histone 4 protein (H4) amino acids 71-94
reduction of anti-ssDNA antibody production relative to control group [3]: not significant | reduction of anti-dsDNA antibody production compared with control group [3]: approximately 50% | increase in help for anti-dsDNA antibody production following addition of rIL-2 [3]: did not exhibit any increase | binding to HLA-DR [4]: have actually been shown to bind HLA-DR | production of anti-histone antibodies relative to control group [5]: remained significantly low | production of anti-nucleosome antibodies relative to control group [5]: remained significantly low | incidence of severe nephritis [6, 12]: 33.3% | incidence of severe nephritis [6, 13]: 33.3% | serum anti-dsDNA antibody level [7, 14]: 17.1±2.7 units | serum anti-dsDNA antibody level [7, 15]: 5.4±1.1 units | survival [8]: all of the H471-94 group mice had succumbed to renal disease | mice alive [8]: 66.6% | Percent Incidence, Grading of Lupus Nephritis 2+ [9]: 66.6 | Percent Incidence, Grading of Lupus Nephritis 3+ [9]: 33.3 | antibody production by B cells stimulated with anti-Ig (Fab')2 in presence or absence of rIL-4 [10]: could be stimulated to produce autoantibodies at levels similar to those of the control mice
